From PubChem BioAssay (NCI) come the findings set out here.

Test systems include SK-MEL-5 melanoma; NCI-H460 lung; T-47D breast; MDA-MB-231 breast; OVCAR-8 ovarian; SF-539 CNS; HCC-2998 colon; SW-620 colon; ACHN renal; OVCAR-5 ovarian; NCI-H226 lung; HCT-116 colon; K-562 leukemia; LOX IMVI melanoma; SR leukemia; SNB-19 CNS; RXF 393 renal.
Test in all cases: NCI tumour cell line growth inhibition, 48 h

Molecules are shown by their SMILES.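 In this assay, cells in 96-well plates receive the compound at five concentrations for 48 hours. Endpoints are linearly interpolated between the surrounding concentrations. TGI: total growth inhibition.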

With `CN(/N=C/c1ccccc1C(=O)O)C1=NCCCCN1`, the TGI in the experiment on SK-MEL-5 melanoma, in the experiment on NCI-H460 lung, in the experiment on T-47D breast, with MDA-MB-231 breast, with OVCAR-8 ovarian and with SF-539 CNS was over 100 µM in each case. The TGI with HCC-2998 colon, in the experiment on SW-620 colon, in the experiment with ACHN renal, with OVCAR-5 ovarian, with NCI-H226 lung and with HCT-116 colon was over 100 µM each time. The TGI with K-562 leukemia, in the experiment with LOX IMVI melanoma, with SR leukemia and in the experiment on SNB-19 CNS was over 100 µM throughout.

For `COc1cc2c3cc1Oc1c(OC)c(OC)cc4c1C(Cc1ccc(O)c(c1)-c1cc(ccc1OC)CC3N(C)CC2)N(C)CC4` (stereo not given), the TGI in the experiment with SK-MEL-5 melanoma worked out at 40.5 µM; in the experiment with NCI-H460 lung, 51.2 µM; with T-47D breast, 68.9 µM; with MDA-MB-231 breast it was 35.4 µM; in the experiment with OVCAR-8 ovarian, 46.3 µM; in the experiment with SF-539 CNS, 23.4 µM. For the same molecule, the TGI in the experiment with HCC-2998 colon was 37.9 µM; in the experiment with RXF 393 renal, 6.7 µM; in the experiment on SW-620 colon, over 100 µM; with ACHN renal, 56.8 µM; in the experiment with OVCAR-5 ovarian, over 100 µM; in the experiment on NCI-H226 lung, over 100 µM. For the same molecule, the TGI in the experiment on HCT-116 colon is over 100 µM; in the experiment with K-562 leukemia it was 61.8 µM; with LOX IMVI melanoma, 83 µM; in the experiment on SR leukemia it was 28.4 µM; in the experiment on SNB-19 CNS, 56.1 µM.

As for `CCN(CCCl)c1cc(CN(C)C)cc(NC(=O)c2ccc(C(=O)Nc3ccccc3)cc2)c1`, the TGI in the experiment on NCI-H460 lung was found to be 1.27 µM; in the experiment on T-47D breast, 9.91 µM; in the experiment with MDA-MB-231 breast, 7.55 µM; in the experiment with OVCAR-8 ovarian, 6.34 µM; in the experiment on SF-539 CNS it was 2.26 µM; with HCC-2998 colon, 2.51 µM. The TGI in the experiment on RXF 393 renal is 0.307 µM; in the experiment on SW-620 colon, 0.339 µM; in the experiment with OVCAR-5 ovarian, 4.5 µM; in the experiment with NCI-H226 lung it was 5.92 µM; with HCT-116 colon it was 11.5 µM; in the experiment with K-562 leukemia it was 8.31 µM. Besides, the TGI with LOX IMVI melanoma was 0.634 µM; in the experiment with SR leukemia, 1.16 µM; in the experiment on SNB-19 CNS it was 8.85 µM.

Take `COc1ccc2c(c1)C(=O)[C@@](Nc1ccc(C=O)cc1)(OC)[C@@](OC)(c1ccc([N+](=O)[O-])cc1)O2`: the TGI in the experiment with SK-MEL-5 melanoma, with NCI-H460 lung, in the experiment on T-47D breast, in the experiment on MDA-MB-231 breast, with OVCAR-8 ovarian and in the experiment on SF-539 CNS was over 10 µM in each case. Besides, the TGI in the experiment with HCC-2998 colon, in the experiment on RXF 393 renal, in the experiment with SW-620 colon, with ACHN renal, in the experiment with OVCAR-5 ovarian and in the experiment on NCI-H226 lung was over 10 µM each time. Moreover, the TGI in the experiment with HCT-116 colon, with K-562 leukemia, in the experiment on LOX IMVI melanoma, in the experiment on SR leukemia and in the experiment with SNB-19 CNS was over 10 µM in each case.

Regarding `CNC(=O)OCC1=C(COC(=O)NC)C(C)N(c2ccccc2)C1` (stereo not given), the TGI was 41.6 µM in the experiment with SK-MEL-5 melanoma; over 100 µM in the experiment with NCI-H460 lung; over 100 µM in the experiment with T-47D breast; over 100 µM in the experiment with MDA-MB-231 breast; over 100 µM with OVCAR-8 ovarian; 67.3 µM with SF-539 CNS. Besides, the TGI with HCC-2998 colon is 80.3 µM; with RXF 393 renal, over 100 µM; in the experiment on SW-620 colon, over 100 µM; in the experiment with ACHN renal it was over 100 µM; with OVCAR-5 ovarian it was 91.9 µM; in the experiment with NCI-H226 lung, 77.3 µM. Besides, the TGI is over 100 µM with HCT-116 colon; 72 µM with K-562 leukemia; over 100 µM in the experiment on LOX IMVI melanoma; 67.4 µM in the experiment on SR leukemia; over 100 µM in the experiment with SNB-19 CNS.

Regarding `COc1cc2c3c(c1OC)C(=O)C(=O)C1=C3N(CCC1)CC2`, the TGI was over 100 µM in the experiment with SK-MEL-5 melanoma; 37.5 µM with NCI-H460 lung; over 100 µM in the experiment on T-47D breast; over 100 µM in the experiment on MDA-MB-231 breast; over 100 µM in the experiment with OVCAR-8 ovarian; 80.1 µM in the experiment on SF-539 CNS. Further, the TGI in the experiment on HCC-2998 colon was over 100 µM; with RXF 393 renal it was over 100 µM; in the experiment on SW-620 colon, over 100 µM; in the experiment with ACHN renal, over 100 µM; with OVCAR-5 ovarian, over 100 µM; in the experiment with HCT-116 colon, 47.3 µM. For the same molecule, the TGI in the experiment with K-562 leukemia is 71.8 µM; in the experiment on LOX IMVI melanoma, over 100 µM; in the experiment with SR leukemia, 55.5 µM; in the experiment on SNB-19 CNS, over 100 µM.

As for `CCNC1=C(NC(=O)CCl)C(=O)c2ccccc2C1=O`, the TGI in the experiment on SK-MEL-5 melanoma is 30.3 µM; in the experiment with NCI-H460 lung it was 57.4 µM; with T-47D breast it was 44.7 µM; in the experiment with MDA-MB-231 breast, 40.9 µM; with OVCAR-8 ovarian, 38.3 µM; with SF-539 CNS, 44.5 µM. Also, the TGI with HCC-2998 colon is over 10 µM; in the experiment with RXF 393 renal, 30.6 µM; in the experiment on SW-620 colon, 74.6 µM; in the experiment with ACHN renal, 31.9 µM; with OVCAR-5 ovarian it was 34.2 µM; with NCI-H226 lung, 48.2 µM. The TGI was 33.7 µM with HCT-116 colon, over 100 µM in the experiment on K-562 leukemia, 80.3 µM in the experiment with SR leukemia and 54.5 µM with SNB-19 CNS.

Consider `NS(=O)(=O)c1nnc(NC(=O)/C=C/C(=O)O)s1`, for which the TGI with SK-MEL-5 melanoma, in the experiment on NCI-H460 lung, in the experiment on T-47D breast, in the experiment on MDA-MB-231 breast, in the experiment on OVCAR-8 ovarian and in the experiment with SF-539 CNS was over 100 µM each time. For the same molecule, the TGI in the experiment on HCC-2998 colon, with RXF 393 renal, with SW-620 colon, with ACHN renal, in the experiment with OVCAR-5 ovarian and in the experiment on HCT-116 colon was over 100 µM throughout. Besides, the TGI in the experiment on K-562 leukemia, in the experiment with LOX IMVI melanoma, in the experiment on SR leukemia and with SNB-19 CNS was over 100 µM each time.
